From patent publication US8153596B2, “Use of SH2 STAT3/STAT1 peptidomimetics as anticancer drugs” (University of South Florida, priority 2006, dated 2012)
“And” between values parts separate entries of the source, which are not always exact repeats. Equal values may be shown once. Read-outs that look alike come from different tables or passages of the source.

Assays:
[1] = test system: v-Src transformed fibroblasts; settings: constitutively active STAT3-dependant v-Src transformed fibroblasts; cited from earlier work
STAT1:STAT1 = biological target: T1, STAT1:STAT1 (Homo sapiens, UniProt P42224); experiment: EMSA of STAT1:STAT1 dimer DNA binding, nuclear extracts preincubated with peptidomimetic, radiolabeled hSIE probe; format: biochemical
T1 construct: Nuclear extracts containing active STAT1 and STAT3 were preincubated with or without peptidomimetics; endogenous in cells; host or cells: nuclear extracts
T1 sequence (P42224 2-750 limits assumed): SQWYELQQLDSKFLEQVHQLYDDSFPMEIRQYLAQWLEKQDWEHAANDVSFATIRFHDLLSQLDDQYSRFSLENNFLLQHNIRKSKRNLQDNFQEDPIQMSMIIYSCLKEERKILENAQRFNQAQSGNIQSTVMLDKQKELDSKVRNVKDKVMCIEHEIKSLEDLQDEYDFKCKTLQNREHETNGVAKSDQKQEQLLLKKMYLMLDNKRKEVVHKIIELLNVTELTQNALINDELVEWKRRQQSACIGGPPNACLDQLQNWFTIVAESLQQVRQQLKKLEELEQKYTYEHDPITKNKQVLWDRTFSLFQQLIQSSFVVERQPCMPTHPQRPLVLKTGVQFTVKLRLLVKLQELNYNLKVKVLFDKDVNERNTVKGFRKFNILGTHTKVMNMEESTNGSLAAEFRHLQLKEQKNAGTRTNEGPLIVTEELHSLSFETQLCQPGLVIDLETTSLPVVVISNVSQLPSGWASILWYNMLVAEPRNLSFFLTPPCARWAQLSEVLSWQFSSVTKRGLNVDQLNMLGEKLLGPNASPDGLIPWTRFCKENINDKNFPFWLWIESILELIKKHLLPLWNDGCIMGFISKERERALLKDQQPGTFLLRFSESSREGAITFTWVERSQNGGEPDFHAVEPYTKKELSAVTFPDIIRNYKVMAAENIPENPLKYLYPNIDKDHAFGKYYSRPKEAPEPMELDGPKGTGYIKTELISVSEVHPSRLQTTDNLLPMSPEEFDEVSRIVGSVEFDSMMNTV
Method: (§1) Evaluation was carried out through pre-incubation of specific concentrations of peptidomimetics with nuclear extracts containing STAT1 and STAT3 for 30 minutes at room temperature before incubation with radiolabeled hSIE oligonucleotide probes and ESMA analysis. Standard peptide synthetic procedures using HBTU and DIPEA were employed to furnish the library of functionalized inhibitors.
as §1

STAT3:STAT3 = biological target: T2, STAT3:STAT3 (Homo sapiens, UniProt P40763); experiment: EMSA of STAT3:STAT3 dimer DNA binding, nuclear extracts preincubated with peptidomimetic, radiolabeled hSIE probe; format: biochemical
T2 construct: Nuclear extracts containing active STAT1 and STAT3 were preincubated with or without peptidomimetics; endogenous in cells; host or cells: nuclear extracts
T2 sequence (P40763 2-770 limits assumed, species assumed): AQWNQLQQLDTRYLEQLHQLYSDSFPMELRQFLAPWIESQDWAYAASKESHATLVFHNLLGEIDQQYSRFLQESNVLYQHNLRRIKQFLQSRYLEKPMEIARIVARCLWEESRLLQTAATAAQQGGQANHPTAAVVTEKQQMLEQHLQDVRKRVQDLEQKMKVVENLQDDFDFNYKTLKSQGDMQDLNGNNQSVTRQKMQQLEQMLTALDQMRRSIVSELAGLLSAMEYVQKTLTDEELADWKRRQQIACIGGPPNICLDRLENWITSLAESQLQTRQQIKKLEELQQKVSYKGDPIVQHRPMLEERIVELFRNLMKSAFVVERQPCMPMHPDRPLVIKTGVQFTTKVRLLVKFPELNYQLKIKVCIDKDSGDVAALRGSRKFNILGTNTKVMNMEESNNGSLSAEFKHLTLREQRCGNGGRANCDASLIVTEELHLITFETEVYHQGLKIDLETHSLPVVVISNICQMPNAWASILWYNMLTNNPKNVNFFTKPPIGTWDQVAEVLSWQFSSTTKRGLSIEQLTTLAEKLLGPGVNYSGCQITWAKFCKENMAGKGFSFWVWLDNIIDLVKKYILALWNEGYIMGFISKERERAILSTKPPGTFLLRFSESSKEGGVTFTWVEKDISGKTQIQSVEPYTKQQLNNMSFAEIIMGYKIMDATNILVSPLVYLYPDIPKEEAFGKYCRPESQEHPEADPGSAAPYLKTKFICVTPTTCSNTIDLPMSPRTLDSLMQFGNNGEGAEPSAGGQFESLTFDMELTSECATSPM
Method: as §1, §1

CC(C)CC(NC(=O)C(Cc1ccc(OP(=O)(O)O)cc1)NC(=O)c1ccc(C#N)cc1)C(=O)O (stereo not shown) [ISS610]
cell growth suppression [1]: suppress cell growth significantly

CC(C)CC(NC(=O)C(Cc1ccc(OP(=O)(O)O)cc1)NC(=O)c1ccc(C#N)cc1)C(=O)NC(C)C (stereo not shown) [ISS834]
IC50 (STAT1:STAT1): 21 µM | IC50 (STAT3:STAT3): 760 µM

CC(C)CC(NC(=O)C(Cc1ccc(OP(=O)(O)O)cc1)NC(=O)c1ccc(C#N)cc1)C(=O)NC1CCCCC1 (stereo not shown) [ISS836]
IC50 (STAT1:STAT1): 25 µM | IC50 (STAT3:STAT3): 605 µM

COc1cccc(NC(=O)[C@H](CC(C)C)NC(=O)[C@H](Cc2ccc(OP(=O)(O)O)cc2)NC(=O)c2ccc(C#N)cc2)c1 [ISS840]
IC50 (STAT1:STAT1; nuclear extracts preincubated 30 min at room temperature, hSIE probe, EMSA, means of three experiments, read-out: STAT1:STAT1 IC50 values): 1.4 µM and 1 µM | IC50 (STAT3:STAT3; nuclear extracts preincubated 30 min at room temperature, hSIE probe, EMSA, means of three experiments, read-out: STAT3:STAT3 IC50 values): 560 µM
